Entries after “also recorded” stand apart in the source; their conditions may differ.
Assays:
[1] = tested on: IPF-derived human lung fibroblasts; assay: LAP adhesion assay (xCELLigence cell index), lung fibroblasts; type: cell-based; conditions: IPF-derived lung fibroblasts (express αvβ1)
Experimental: Two latency associated peptide (LAP) adhesion binding assays were devised using primary human lung cells, including normal (healthy) human bronchial epithelial cells and human lung fibroblasts (healthy and IPF).
Human lung fibroblasts derived from normal and IPF lung tissue are known to express αvβ1 integrin. […] In the assay, the IPF-derived human lung fibroblasts were separately incubated with: the αvβ1-selective small molecule inhibitor; the selective antibody αvβ6 inhibitor, 3G9; and compound 5.

[2] = tested on: SMAD3 phosphorylation; assay: Murine bleomycin model: SMAD3 phosphorylation; type: in vivo, mouse; conditions: bleomycin mice
Experimental: Mice (C57BL/6) were divided into healthy (n=15), vehicle-treated (n=15), and test article-treated (n=15 per dose) groups. Mice in the vehicle and test article-treated groups were administered 3 U/kg of bleomycin (Teva Pharmaceuticals; North Wales, PA) via oropharyngeal aspiration while under anesthesia on day 0. Healthy animals were administered water in a similar fashion. Starting on day 7, mice in the control group were administered PBS vehicle, 130 uL, by oral gavage, BID for 14 days. Also starting on day 7, mice in the test group were administered compound 5 in PBS by oral gavage, BID for 14 days, at relative dosages of 1x, 2.5x and 5x. […] From day 14 through day 21, 9 of the 15 mice were administered ^2H2O for labeling. All mice were sacrificed on day 21 and tissues were collected. Samples were prepared for analysis either directly from lung tissue, or by bronchoalveolar lavage, which washes out the bronchiolar and alveolar space with saline to produce a bronchoalveolar lavage fluid (BALF) in which 80-90% of cells are alveolar macrophages.
FIG. 4C is a graph showing that compared to the healthy mice, lung tissue in the vehicle-treated mice experienced a substantial increase in SMAD3 phosphorylation, which is a measure of TGF-β signaling-related kinase activity. […]

[3] = tested on: lung Col1a1 expression; assay: Precision cut lung slices of mice under chronic bleomycin exposure (single vs dual integrin inhibition); type: cell-based, mouse; conditions: slices cultured 7 days
Experimental: Mice (C57BL/6) were administered 3 U/kg of bleomycin (Teva Pharmaceuticals; North Wales, PA) on Day 0 and 1 U/kg of bleomycin on days 14, 28, 42 and 56 via oropharyngeal aspiration while under anesthesia. At day 70, 14 days after the final bleomycin insult, precision cut lung slices were obtained. Following euthanization, 2% low gelling temp agarose was injected into the mouse lungs via the trachea. […] The lobes were then subjected to precision slicing to obtain samples for culture using a microtome (Compresstome VF-300-0Z, Precisionary; Greenville, NC). Individual slices were distributed in a multiwell culture plate and cultured for 7 days under control (DMSO) and test compound conditions. […]
During the culture period, slices in the control group were treated with DMSO and slices in the test group were treated with a DMSO solution of one of: the selective antibody αvβ6 inhibitor 3G9; the αvβ1-selective small molecule inhibitor; a combination of the selective antibody αvβ6 inhibitor 3G9 and the αvβ1-selective small molecule inhibitor; compound 5; and the small molecule ALK5 inhibitor. The selective αvβ1 and αvβ6 integrin inhibitors were analyzed at ≥ their respective IC90 concentrations for inhibition of TGF-beta activation. […] The small molecule ALK5 inhibitor was analyzed at 10x its reported IC50 value.

[4] = tested on: lung Col1a1 expression; assay: Precision cut lung slices from human IPF explants, 3 days; type: cell-based; conditions: 3G9 ≥400 ng/mL, compound 5 179 nM, ALK5 inhibitor 1 µM
Description: Explanted lung tissue was obtained from human IPF subjects and inflated with agarose as described in the preceding examples. Biopsy cores were obtained from the agarose-inflated lung tissue. The biopsy cores were subjected to precision slicing to obtain several hundred µm thick. Individual slices were distributed in a multiwell culture plate and cultured for 3 days under control (DMSO) and test compound conditions. The viability of the slices over the course of culturing was confirmed by WST-1 assay of mitochondrial activity.

[5] = Unbound plasma concentration in the PET/CT study; type: in vivo; conditions: human
Experimental: This Example was conducted as an open-label, single-dose (60 mg, 120 mg, 240 mg or 320 mg) clinical trial evaluating αvβ6 receptor occupancy in the lungs, safety, and pharmacokinetics of Compound #5 in subjects with IPF. To date, 4 participants have completed the study. Each of these 4 participants was undergoing a pre-existing course of therapy using one of the SoC (Standard of Care) compounds, nintedanib. These participants continued their pre-existing nintedanib therapy throughout this study. Knottin tracer uptake kinetics were compared pre- and post-dose of the disclosed compound, as measured by standardized uptake values (SUVs) and parameters estimated from kinetic modeling in regions-of-interest on dynamic [^18F]FP-R01-MG-F2 PET/CT scans. […] Receptor occupancy was estimated from the output of the two-compartment model (VT, the […]) using standard equations and fitting algorithms, and corrections for VND (non-displaceable tracer binding). For example, in FIG. 10, the data points, shown as circles, are modeled by the following formula: […]
FIG. 9 is a graph of unbound plasma concentration (X-axis) vs Vt (Y-axis) for the baseline Vt at each dose, the measured Vt after each dose, and a fit line. FIG. 10 is a graph of unbound plasma concentration (X-axis) vs % receptor occupancy (Y-axis). FIG. 11 is a bar chart showing % target engagement for each subject and dose.

[6] = tested on: patients with idiopathic pulmonary fibrosis (IPF); assay: Phase 2a trial in IPF: safety and tolerability
Description: Approximately 80% of the enrolled patients were on standard of care and were equally distributed between nintedanib and pirfenidone.

For COCCN(CCCCc1ccc2c(n1)NCCC2)CC[C@H](Nc1ncnc2ccccc12)C(=O)O [Compound 5, (S)-4-((2-methoxyethyl)(4-(5,6,7,8-tetrahydro-1,8-naphthyridin-2-yl)butyl)amino)-2-(quinazolin-4-ylamino)butanoic acid], the “inhibition of cell adhesion to LAP” value [1] was “substantially inhibited”, the “pSMAD3 levels in the lung, % of the untreated levels” value [2] was “approximately 50%” and the “SMAD3 phosphorylation in lung tissue vs vehicle” value ([2]; 1x, 2.5x, 5x dose PO BID 14 days from day 7) was “substantial, statistically significant dose-dependent reductions”. The “lung Col1a1 expression vs DMSO control” value [3] was “decreased lung Col1a1 expression substantially”, the “lung Col1a1 expression vs DMSO control” value [4] was “substantial, statistically significant” and the concentration at 4 h ([5]; 60 mg, Subject A00, 60 mg single dose) was 3.66 nM. For the same molecule, the concentration at 4 h ([5]; 120 mg, Subject B120, 120 mg) was 10 nM, the concentration at 4 h ([5]; 240 mg, Subject B240, 240 mg) was 58.3 nM and the concentration at 4 h ([5]; 240 mg, Subject C240, 240 mg) was 103 nM. The concentration at 4 h ([5]; 320 mg, Subject D320, 320 mg) was 33.6 nM, the concentration at 4 h ([5]; Subject C320, 320 mg) was 96.5 nM and the “discontinuations due to adverse events” value ([6]; 12 weeks) was “no discontinuations due to adverse events”. The “severity of most treatment emergent adverse events (TEAE)” value ([6]; 12 weeks) was “mild or moderate”, the “treatment related deaths or drug related serious adverse events (SAE)” value ([6]; 12 weeks) was “No treatment related deaths or drug related serious adverse events; also recorded: No treatment related SAEs or deaths” and the “patients completing 12 weeks of treatment (65 of 67)” value ([6]; 40, 80, 160 mg once daily) was 97%. For the same molecule, the tolerability ([6]; 40, 80, 160 mg once daily, 12 weeks) was “safe and well tolerated” and the serious adverse events ([6]; Compound 5 alone) was “did not result in serious adverse events”.
